Data: patent US20070059265A1, “Benzylidene-1,3-thiazolidine-2,4-dione compounds for stimulating or inducing the growth and/or for reducing the loss and/or for increasing the density of keratin fibers” (L'OREAL, priority 2005, published 2007)

Target: T1, type-1 15-PGDH (Homo sapiens, UniProt P15428)
T1 construct: made in house
T1 sequence (P15428 1-266): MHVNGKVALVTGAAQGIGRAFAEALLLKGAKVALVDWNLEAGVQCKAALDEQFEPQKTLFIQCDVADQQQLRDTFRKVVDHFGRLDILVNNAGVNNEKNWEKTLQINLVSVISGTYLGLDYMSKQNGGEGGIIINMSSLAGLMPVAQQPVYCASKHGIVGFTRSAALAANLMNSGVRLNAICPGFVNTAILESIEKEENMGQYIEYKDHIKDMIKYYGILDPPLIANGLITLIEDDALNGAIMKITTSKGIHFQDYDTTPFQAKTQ
Assay: Test on type-1 15-PGDH (spectrophotometric, 340 nm, PGE2 and β-NAD as substrates)
Type: biochemical
Settings: 37° C.; for IC50: pH 7.4 Tris buffer, 50 μM Prostaglandin E2, 1.5 mM β-NAD
Procedure: The enzyme 15-PGDH is obtained as described in patent application FR 02/05067 filed in the name of L'Oréal, as a suspension in a medium adjusted to a concentration of 0.3 mg/mL and then blocked at −80° C. For the purposes of the test, this suspension is thawed and stored in ice.
In parallel, a 100 mM, pH 7.4 Tris buffer containing 0.1 mM of dithiothreitol (D5545, Sigma-Aldrich, L'isle D'Abeau Chesne, BP 701, 38297, Saint Quentin Fallavier), 1.5 mM of β-NAD (N6522, Sigma-Aldrich, L'isle D'Abeau Chesne, BP 701, 38297, Saint Quentin Fallavier), and 50 μM of Prostaglandin E2 (P4172, Sigma-Aldrich, L'isle D'Abeau Chesne, BP 701, 38297, Saint Quentin Fallavier) is prepared.
0.965 ml of this buffer (brought to 37° C. beforehand) is introduced into the cuvette of a spectrophotometer (Perkin-Elmer, Lambda 2) thermostatically maintained at 37° C., the measuring wavelength of which is set at 340 nm. 0.035 mL of enzymatic suspension at 37° C. is introduced into the cuvette concomitantly with the recording (corresponding to an increase in the optical density at 340 nm). The maximum reaction rate is recorded.

| inhibition at 100 µM (at 100 μM of compound, pH 7.4, read-out: % inhibition of the enzymatic activity of 15-PGDH) [%] | IC50 [nM] | SMILES |
| --- | --- | --- |
| 48 |  | O=C1NC(=O)/C(=C/c2ccccc2Oc2ccc(F)cc2)S1 [Compound 6] |
|  | 1550 | O=C1NC(=O)/C(=C/c2ccccc2Oc2ccc(Br)cc2F)S1 [Compound 10] |
|  | 200 | CC(C)(C)c1ccc(Oc2cccc(/C=C3\SC(=O)NC3=O)c2)cc1 [Compound 16] |
